Assays:
DIO Levin rats [1] = test: In vivo testing DIO Levin rats: weight changes, food consumption, insulin, leptin levels
Protocol: CKD-732 as referred to herein is the hemitartrate salt of the following structure:
Test articles were administered subcutaneously on an every 4 day (q4d) schedule in a diet-induced obesity (DIO) Levin-DS rat model. […] A dietary intervention (Standard Chow, Labdiet 5001; 3.4 kcal/g) was included to compare to the drug interventions. Upon arrival at three weeks of age, the male rats received ad libitum pellets of Harlan Diet TD.06414, 60% of calories from fat, 21% of calories from carbohydrate; 5.1 kcal/g. Prior to dosing the rats were randomized into groups of three animals with an average body weight of 595 gm. […] Compound 1 in the form of the hemitartrate and CKD-732 in the form of the hemitartrate were dissolved in ethanol prior to dilution with vehicle. All doses were administered at a volume of 5.0 ml/kg. […] On day 1, first dose, the rats were 14 weeks of age. Also on day 1, Group 2 was switched from the high fat diet to a standard chow diet; the remaining groups were maintained on a high fat diet for the duration of the study.
(§1) Animals were weighed every other day. Food consumption was measured weekly. On an approximately weekly basis throughout the study, blood samples were taken for assessment of serum chemistries including glucose and insulin. On Day 48 all rats underwent a 4 hour fasted Oral Glucose Tolerance Test (OGTT). Animals were dosed orally (per os, PO) at 8 mL/kg 25% glucose (2 g/kg). On day 68, gross pathology was performed to determine body composition.

DIO Levin rats [2] = test: Oral Glucose Tolerance Test (OGTT) Day 48 and HOMA-ir in DIO Levin rats; format: in vivo; conditions: 1.15 mg/kg q4d sc;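 for Blood Glucose pre-OGTT: blood glucose in mg/dL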;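 for Blood Glucose, Time 120: blood glucose in mg/dL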;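 for Blood Glucose, Time 15: blood glucose in mg/dL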;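 for Blood Glucose, Time 30: blood glucose in mg/dL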;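 for Blood Glucose, Time 60: blood glucose in mg/dL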;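 for Blood Glucose, Time 90: blood glucose in mg/dL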
Protocol: as §1

DIO C57Bl/6 mice = test: In vivo testing DIO mice schedule-dose response: weight, food intake, ipGTT, HOMA-ir data
Protocol: Animals were dosed according to the schedule in Table 17 below.
Compound dosing occurred between 9 and 10 am on the day of dosing. Groups 6 and 7 received a total of 17 doses. The q4d groups (1, 2, 3, 4, 8, 9) received a total of 9 doses. The q8d group (5) received a total of 5 drug doses. Body weight and food intake were measured every other day. Blood glucose was measured on Day −7, Day 0, Day 7, Day 14, Day 21 and Day 28 at 9:00 am in fed state (BG measured before dose on dosing days). BG was measured by glucometer. An intraperitoneal glucose tolerance test (ipGTT, 6 h fasting) was performed.
The study was terminated on day 34. Liver and epididymal white adipose tissues (eWAT) were harvested, weighed and stored at −80° C. Sera was collected to determine: AST, ALT, ALP, CK, BUN, creatinine, calcium, potassium, sodium, chloride, total protein, albumin, total bilirubin, glucose, triglyceride and cholesterol. Insulin samples were measured using a commercial kit.

[3] = every fourth day schedule; due to confusion and insomnia; cited from earlier work

Structure (SMILES): COC1C(OC(=O)/C=C/c2ccc(OCCN(C)C)cc2)CC[C@]2(CO2)C1[C@@]1(C)O[C@@H]1CC=C(C)C (stereo partly shown) [CKD-732, reference compound]
- lower body weight than vehicle (DIO Levin rats [1]; 1.15 mg/kg Q4D): 3.2%
- Avg. Insulin Day 7 (DIO Levin rats [1]; 1.15 mg/kg q4d sc): 2.08 ng/mL
- Avg. Insulin Day 15 (DIO Levin rats [1]; 1.15 mg/kg q4d sc): 1.91 ng/mL
- Avg. Insulin Day 23 (DIO Levin rats [1]; 1.15 mg/kg q4d sc): 1.60 ng/mL
- Avg. Insulin Day 48 (DIO Levin rats [1]; 1.15 mg/kg q4d sc): 1.56 ng/mL
- Avg. Insulin Pre-dosing (DIO Levin rats [1]; 1.15 mg/kg q4d sc): 2.58 ng/mL
- Group Average Food Consumption Day 1-8 (DIO Levin rats [1]; 1.15 mg/kg q4d sc): 131.8 g
- Group Average Food Consumption Day 9-15 (DIO Levin rats [1]; 1.15 mg/kg q4d sc): 110.5 g
- Group Average Food Consumption Day 16-23 (DIO Levin rats [1]; 1.15 mg/kg q4d sc): 108.7 g
- Group Average Food Consumption Day 24-30 (DIO Levin rats [1]; 1.15 mg/kg q4d sc): 133.9 g
- Group Average Food Consumption Day 31-36 (DIO Levin rats [1]; 1.15 mg/kg q4d sc): 153.9 g
- Group Average Food Consumption Day 37-43 (DIO Levin rats [1]; 1.15 mg/kg q4d sc): 148.7 g
- Group Average Food Consumption Day 44-50 (DIO Levin rats [1]; 1.15 mg/kg q4d sc): 112.3 g
- Group Average Food Consumption Day 51-57 (DIO Levin rats [1]; 1.15 mg/kg q4d sc): 135.0 g
- Group Average Food Consumption Day 58-63 (DIO Levin rats [1]; 1.15 mg/kg q4d sc): 125.5 g
- Group Average Food Consumption Day 63-68 (DIO Levin rats [1]; 1.15 mg/kg q4d sc): 61.9 g
- Leptin Levels Day 29 (DIO Levin rats [1]; 1.15 mg/kg q4d sc): 4.30
- Leptin Levels Pre-dose (DIO Levin rats [1]; 1.15 mg/kg q4d sc): 4.43
- Leptin Levels, Day 29, % Change from Baseline (DIO Levin rats [1]; 1.15 mg/kg q4d sc): −3.0%
- Final BW (DIO Levin rats [1]; 1.15 mg/kg q4d sc, after 68 days, 60% fat diet): 714.0 g
- Blood Glucose pre-OGTT (DIO Levin rats [2]): 123 mg/dL
- HOMA-ir (Insulin Sensitivity) 15 min (DIO Levin rats [2]): 49.0
- HOMA-ir (Insulin Sensitivity) 30 min (DIO Levin rats [2]): 35.9
- HOMA-ir (Insulin Sensitivity) Pre-dose (DIO Levin rats [2]): 13.6
- Blood Glucose, Time 15 (DIO Levin rats [2]; OGTT): 174 mg/dL
- Blood Glucose, Time 30 (DIO Levin rats [2]; OGTT): 171 mg/dL
- Blood Glucose, Time 60 (DIO Levin rats [2]; OGTT): 158 mg/dL
- Blood Glucose, Time 90 (DIO Levin rats [2]; OGTT): 153 mg/dL
- Blood Glucose, Time 120 (DIO Levin rats [2]; OGTT): 144 mg/dL
- BW (DIO Levin rats [2]; at OGTT): 686 g
- Glucose, ipGTT 0 min (DIO C57Bl/6 mice; 1 mg/kg Q2D): 161.3 mg/dL
- Glucose, ipGTT 15 min (DIO C57Bl/6 mice; 1 mg/kg Q2D): 469.2 mg/dL
- Insulin, ipGTT 0 min (DIO C57Bl/6 mice; 1 mg/kg Q2D): 54.8 uU/ml
- Insulin, ipGTT 15 min (DIO C57Bl/6 mice; 1 mg/kg Q2D): 89.3 uU/ml
- Glucose, ipGTT 0 min (DIO C57Bl/6 mice; 2 mg/kg q4d): 182.6 mg/dL
- Glucose, ipGTT 15 min (DIO C57Bl/6 mice; 2 mg/kg q4d): 498.6 mg/dL
- Insulin, ipGTT 0 min (DIO C57Bl/6 mice; 2 mg/kg q4d): 99.8 uU/ml
- Insulin, ipGTT 15 min (DIO C57Bl/6 mice; 2 mg/kg q4d): 118.3 uU/ml
- response (weight loss) by schedule (DIO C57Bl/6 mice; Q2D (QOD) schedule versus Q4D, FIG. 20): better response than the same average daily dose administered on a Q4D schedule
- MTD [3]: 15 mg/m2/day
